From patent US7439263B2, “Pyrrolidine and thiazolidine compounds” (Les Laboratoires Servier, priority 2004, dated 2008) come the findings set out here.

Molecules are shown by their SMILES. pIC50: −log10 of the molar value. Where a name gives a salt, the structure may show the parent alone.

The test concerns the target T1, Dipeptidyl-Peptidase IV (DPP IV) (Sus scrofa, UniProt P22411).
T1 construct: using 10 μl of the pig kidney preparation; from tissue; host or cells: pig kidney membrane fraction, solubilised with n-octyl-β-glucopyranoside
Kind of test: Inhibition of dipeptidyl-peptidase IV in pig kidney (Gly-Pro-pNA cleavage, absorbance at 405 nm). It counts as biochemical. To be noted: pig kidney membrane preparation; substrate Gly-Pro-pNA; 60 min at 37° C.; geometric mean of the IC50s. As for the experimental part:
Inhibition of Dipeptidyl-Peptidase IV in Pig Kidney
Preparation of the Membrane Fraction of Pig Kidney
Pig kidney tissue (large white pig, 2 to 3 months' old) was homogenised (5 g of tissue in 15 ml of Tris buffer (114 mM, pH 7.8-8)) and then centrifuged at 150000×g for 30 min. at 4° C. The pellet was taken up in 15 ml of buffer and re-centrifuged at 150000×g for 30 min. at 4° C. With stirring, the resulting pellet was dissolved in 15 ml of buffer with 60 mM n-octyl-β-glucopyranoside for 30 min. at ambient temperature. After centrifugation at 150000×g for 30 min. at 4° C., the supernatant was dialysed (MWCO 12-14000) against 114 mM Tris pH 7.8-8, and then divided into aliquots at —80° C.
Measurement of Dipetidyl Peptidase IV (DPP IV) Activity
The enzymatic activity is measured by cleavage of a chromogenic substrate, glycyl-prolyl-p-nitroanilide (Gly-Pro-pNA), giving Gly-Pro and pNA (p-nitroaniline); the latter is detected by absorbance at 405 nm. The activity is measured in the absence (control) or in the presence of 10 μl of the inhibitors, using 10 μl of the pig kidney preparation (0.81 mU, 1U=1 μmol of pNA product/min. at 37° C.). Incubation is started by adding the substrate (250 μl), dissolved in Tris buffer (114 mM) pH 7.8-8, over a period of 60 min. at 37° C. […] The results were expressed as a percentage of the control, and the IC50 values (effective dose for 50% inhibition of the control activity) were determined using non-linear analysis between 0 and 100%, (GraphPad Prism version 4.01 for Windows). Each measurement was carried out in quadruplicate and each IC50 determination was carried out from 1 to 5 times.
The results obtained (geometric mean of the IC50s) for the compounds representing the invention are compiled in the following Table: […]

T1 sequence (P22411 whole entry): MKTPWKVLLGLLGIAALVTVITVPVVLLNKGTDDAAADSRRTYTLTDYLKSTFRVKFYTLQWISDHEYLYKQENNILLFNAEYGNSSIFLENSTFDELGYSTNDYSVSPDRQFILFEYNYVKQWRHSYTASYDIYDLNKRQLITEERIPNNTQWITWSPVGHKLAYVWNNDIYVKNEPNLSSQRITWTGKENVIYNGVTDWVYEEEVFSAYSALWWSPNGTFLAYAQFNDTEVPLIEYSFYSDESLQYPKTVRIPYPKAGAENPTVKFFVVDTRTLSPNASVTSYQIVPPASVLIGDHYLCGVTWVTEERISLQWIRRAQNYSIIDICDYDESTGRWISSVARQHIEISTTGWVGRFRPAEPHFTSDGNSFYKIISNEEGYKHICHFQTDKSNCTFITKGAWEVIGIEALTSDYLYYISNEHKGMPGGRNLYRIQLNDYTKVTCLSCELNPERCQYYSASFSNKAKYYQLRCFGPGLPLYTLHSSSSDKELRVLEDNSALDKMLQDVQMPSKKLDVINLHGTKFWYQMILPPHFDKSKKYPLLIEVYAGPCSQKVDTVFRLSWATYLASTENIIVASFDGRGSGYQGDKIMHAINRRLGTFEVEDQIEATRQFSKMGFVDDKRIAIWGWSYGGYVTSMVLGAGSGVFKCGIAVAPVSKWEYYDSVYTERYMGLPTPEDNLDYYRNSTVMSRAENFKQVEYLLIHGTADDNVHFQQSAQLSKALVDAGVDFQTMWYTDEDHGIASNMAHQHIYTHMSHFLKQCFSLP

As for `N#C[C@@H]1CCCN1C(=O)CNC1CCC2(CCCCCCC2)CC1` [Example 6, (2S)-1-[(Spiro[5.7]tridec-3-ylamino)acetyl]-2-pyrrolidinecarbonitrile hydrochloride], the pIC50 was 7.57.

Molecule `N#C[C@@H]1CC(F)(F)CN1C(=O)CNC1(CO)CCC2(CCOCC2)CC1` [Example 30, (2S)-4,4-Difluoro-1-({[9-(hydroxymethyl)-3-oxaspiro[5.5]undec-9-yl]amino}acetyl)-2-pyrrolidinecarbonitrile] had a pIC50 of 7.69.

Turning to `N#C[C@@H]1CCCN1C(=O)CNC1CCC2(CCSCC2)CC1` [Example 23, (2S)-1-[(3-Thiaspiro[5.5]undec-9-ylamino)acetyl]-2-pyrrolidine-carbonitrile hydrochloride], the pIC50 is 7.57. In turn, `N#C[C@@H]1CCCN1C(=O)CNC1(CO)CC2(CCCC2)C1` [Example 17, (2S)-1-({[2-(Hydroxymethyl)spiro[3.4]oct-2-yl]amino}acetyl)-2-pyrrolidinecarbonitrile hydrochloride] had a pIC50 of 7.36.

In the case of `N#C[C@@H]1CCCN1C(=O)CNC1(CO)CCC2(CCCCC2)CC1` [Example 5, (2S)-1-({[3-(Hydroxymethyl)spiro[5.5]undec-3-yl]amino}acetyl)-2-pyrrolidinecarbonitrile], the pIC50 is 7.16. As for `N#C[C@@H]1CCCN1C(=O)CNC1CCC2(CC1)CCC1(CCCCC1)CC2` [Example 8, (2S)-1-[(Dispiro[5.2.5.2]hexadec-3-ylamino)acetyl]-2-pyrrolidine-carbonitrile], the figure is 7.64. In the case of `N#C[C@@H]1CCCN1C(=O)CNC1CCC2(CCNCC2)CC1` [Example 20, (2S)-1-[(3-Azaspiro[5.5]undec-9-ylamino)acetyl]-2-pyrrolidine-carbonitrile bis(trifluoroacetate)] it was 7.14; in that of `N#C[C@@H]1CCCN1C(=O)CNC1(CO)CCC2(CCOCC2)CC1` [Example 1, (2S)-1-({[9-(Hydroxymethyl)-3-oxaspiro[5.5]undec-9-yl]amino}-acetyl)-2-pyrrolidinecarbonitrile], 7.12. `N#C[C@@H]1CSCN1C(=O)CNC1CCC2(CCCCC2)CC1` [Example 18, (4R)-3-[(Spiro[5.5]undec-3-yl-amino)acetyl]-1,3-thiazolidine-4-carbonitrile trifluoroacetate] gave a pIC50 of 8.46. `N#C[C@@H]1C[C@H](F)CN1C(=O)CNC1(CO)CCC2(CCOCC2)CC1` [Example 29, (2S,4S)4-Fluoro-1-({[9-(hydroxymethyl)-3-oxaspiro[5.5]undec-9-yl]-amino}acetyl)-2-pyrrolidinecarbonitrile] had a pIC50 of 7.50.

For the molecule `N#C[C@@H]1CCCN1C(=O)CNC1CCC2(CC1)CC2` [Example 28, (2S)-1-[(Spiro[2.5]oct-6-ylamino)acetyl]-2-pyrrolidinecarbonitrile], the pIC50 is 6.77.

As a reminder, the pIC50 is −log10 of the IC50, conventionally taken in molar units. High values mean a small IC50, low ones a large IC50.
